From PubChem BioAssay (NCI)
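How tested: cells in 96-well plates exposed to compound for 48 hours at five concentrations. At the GI50, growth is halved. TGI marks complete inhibition of growth.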

How the values were obtained:
Experiment in all cases: DTP human tumour cell line panel, 48 h
[1] = tested on: 786-0 renal
[2] = tested on: HOP-62 NSCLC
[3] = tested on: HOP-92 NSCLC
[4] = tested on: HS 578T breast
[5] = tested on: M14 melanoma
[6] = tested on: MALME-3M melanoma
[7] = tested on: NCI/ADR-RES ovarian
[8] = tested on: SK-OV-3 ovarian
[9] = tested on: SW-620 colon
[10] = tested on: TK-10 renal
[11] = tested on: MDA-N

| SMILES | TGI [1] [µM] | TGI [2] [µM] | TGI [3] [µM] | TGI [4] [µM] | TGI [5] [µM] | TGI [6] [µM] | TGI [7] [µM] | TGI [8] [µM] | TGI [9] [µM] | TGI [10] [µM] | GI50 [2] [µM] | GI50 [5] [µM] | GI50 [7] [µM] | GI50 [9] [µM] | GI50 [10] [µM] | TGI [11] [µM] | GI50 [3] [µM] | GI50 [6] [µM] | GI50 [8] [µM] |
| --- | --- | --- | --- | --- | --- | --- | --- | --- | --- | --- | --- | --- | --- | --- | --- | --- | --- | --- | --- |
| c1csc(-c2csc(-c3cccs3)c2)c1 | > 100 | > 100 | 69.8 | > 100 | > 100 | > 100 | > 100 | > 100 | > 100 | > 100 |  |  |  |  |  |  |  |  |  |
| CC[N+]1(C)CCC(O)(/C=C/c2ccc(Cl)c(Cl)c2)C(C(=O)/C=C/c2ccc(Cl)c(Cl)c2)C1 (stereo not given) | 3.46 | 6.8 | 7.82 | 7.66 | > 23.3 | 4.6 | 6.63 | 16.5 | 4.47 | 6.58 |  |  |  |  |  |  |  |  |  |
| CCCCCCCCCC[C@@H](O)[C@H]1CC[C@@H]([C@H]2CC[C@H]([C@H](O)CCCCCCCCCC[C@@H]3CC(CC(C)=O)C(=O)O3)O2)O1 (stereo not given in full) | > 100 | 72.2 | 63.4 | 3.78 | 50.4 | 37.5 |  |  | > 100 | > 100 | 19.1 | 20 | 11.9 | 37.2 | 26.9 |  |  |  |  |
| COc1cc(/C=C/C=C2\CC(C)C/C(=C\C=C\c3ccc(O)c(OC)c3)C2=O)ccc1O (stereo not given) | 47.9 | 37.8 | 23.4 | > 100 | 46.9 | 31.1 | 77.4 | 18.2 | > 100 | 16 |  |  |  |  |  |  |  |  |  |
| Cc1cccc(-c2cc(=O)c3c(C)ccnc3[nH]2)c1 | > 100 | > 100 |  | > 100 | > 100 |  |  | > 100 |  | > 100 |  |  |  |  |  |  |  |  |  |
| COc1cccc2c1C(=O)c1c(O)c3c(c(O)c1C2=O)C[C@](O)(C(=O)CO)CC3OC1CC(N)C(OC2CCCCO2)C(C)O1 (stereo not given in full) |  | 1.7 | 1.02 |  |  | 0.705 | 41.8 | 8.28 | 6.48 |  |  |  |  |  |  |  |  |  |  |
| O=c1c2cc(Cl)ccc2n2nnc3ccc(NCCNCCO)c1c32 | 2.02 | 3.03 | 6.1 |  | 2.88 | 5.67 |  | 6.26 | 2.51 | 6.24 |  |  |  |  |  | 2.32 |  |  |  |
| CCC[CH2][Ge]([CH2]CCC)([CH2]CCC)[O]C(=O)CCl |  | 9.23 | 8.54 |  | 6.94 | 12.5 |  | 20.6 | 17.4 | 17.7 | 1.89 | 1.25 |  | 4.19 | 3.4 |  | 0.573 | 1.14 | 5.2 |
| Cc1cc(=O)[nH]c(S(=O)(=O)NC(=S)Nc2ccc(Br)cc2)n1 | > 100 | > 100 | > 100 | > 100 | > 100 | > 100 | > 100 | > 100 | > 100 | > 100 |  |  |  |  |  |  |  |  |  |
| Nc1ncc(Cc2nn3c(COc4ccc(Cl)cc4)nnc3s2)s1 | > 100 | > 100 | > 100 | > 100 | > 100 | > 100 | > 100 | > 100 | > 100 | > 100 |  |  |  |  |  |  |  |  |  |
| C=C1C(=O)OC2C1CC1OC2C(C)CCC/C(C)=C\CCC1(C)O (stereo not given) |  | > 65.9 | 30.1 |  |  | 80.6 | 55.2 | 119 | 32.6 |  |  |  |  |  |  |  |  |  |  |
| CC1Oc2c(c(O)cc3oc(=O)cc(-c4ccccc4)c23)C(=O)C1C (stereo not given) |  |  | > 100 |  | > 100 | > 100 |  | > 100 | > 100 | > 100 |  |  |  |  |  |  |  |  |  |
| CC(C)=CCC/C(C)=C/CCC1(C)C2COC(=O)C21 (stereo not given) | > 100 | > 100 | 87 |  |  | > 100 |  | > 100 | > 100 | > 100 |  |  |  |  |  | > 100 |  |  |  |
| COc1ccc(CNc2cnc3cc(N)ccc3n2)cc1OC | > 100 | > 100 |  |  | > 100 | > 100 |  |  | > 100 | > 100 |  |  |  |  |  |  |  |  |  |
| C=CC(=O)N1C/C(=C\c2ccc(F)cc2)C(=O)/C(=C/c2ccc(F)cc2)C1 | 0.346 | 1.41 | 8.62 | 0.876 | 1.38 | 2.41 | 20.1 | 2.38 | > 100 | 2.84 |  |  |  |  |  |  |  |  |  |
| O.O=[Se](=O)(O)O.[NH-]C1CCCCC1[NH-].[Pt+2] (stereo not given) |  | > 100 | > 100 |  |  | 44 | > 100 | > 100 | > 100 |  | 37.5 |  | 11.3 | 2.11 |  |  | 58.8 | 8.23 | 64.8 |
| COc1ccc(/C(Cl)=C(\C=O)c2ccc(Cl)cc2)cc1 |  | 53.6 |  |  | > 100 | > 100 |  | > 100 | > 100 | > 100 |  |  |  |  |  |  |  |  |  |
| O=C(c1ccccc1)c1ccc2c(c1)N=C(c1ccc(Cl)c(Cl)c1)CC(c1ccc3ccccc3c1)N2 (stereo not given) |  | > 100 | > 100 |  | > 100 |  |  | > 100 | > 100 | > 100 |  |  |  |  |  |  |  |  |  |
| C#Cc1ccccc1C(=O)OC |  | > 100 | > 100 |  | > 100 | > 100 |  | > 100 | > 100 | > 100 |  |  |  |  |  |  |  |  |  |
